# pIC50: −log10 of the molar value.
# How the values were obtained:
# [1] = tested on: C. parapsilosis ATCC 22019; assay: Anti-Fungal Activity Assay (broth microtiter MIC), C. parapsilosis; format: cell-based, Candida parapsilosis; details: Lodderomyces parapsilosis, ATCC22019, 48 h, 3 replicates; MIC recorded at 48 h; read-out: MIC C. parapsilosis ATCC 22019
# Summary of the method: (§1)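 Susceptibility testing used direct colony suspensions in RPMI 1640+MOPS from Sabouraud dextrose agar grown at 35° C. Endpoints were visual MICs at 48 h under CLSI M27-A3 microtiter conditions, plus a 24 h reading for soraphen.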
# C. albicans ATCC 90028 = assay: Anti-Fungal Activity Assay (broth microtiter MIC), C. albicans; format: cell-based, Candida albicans; details: Candida albicans, ATCC90028, 48 h, 3 replicates; MIC recorded at 48 h; read-out: MIC C. albicans ATCC 90028
# Summary of the method: as §1
# Human ACC2 = Human ACC2 (Homo sapiens, UniProt O00763); assay: In vitro ACC2 inhibition assay (ADP-Glo), human ACC2; format: biochemical; details: 5 nM ACC2, 20 μM ATP, 20 μM acetyl-CoA
# C. krusei ATCC 6258 = assay: Anti-Fungal Activity Assay (broth microtiter MIC), C. krusei; format: cell-based, Candida krusei; details: Pichia kudriavzevii, ATCC6258, 48 h, 3 replicates; MIC recorded at 48 h; read-out: MIC C. krusei ATCC 6258
# Summary of the method: as §1
# Fungal ACC2 = Fungal ACC2 (UniProt Q00955); details: read-out: Fungal ACC2 (IC50, in vitro ACC2 inhibition)
# Chain of Fungal ACC2 (Q00955 whole entry): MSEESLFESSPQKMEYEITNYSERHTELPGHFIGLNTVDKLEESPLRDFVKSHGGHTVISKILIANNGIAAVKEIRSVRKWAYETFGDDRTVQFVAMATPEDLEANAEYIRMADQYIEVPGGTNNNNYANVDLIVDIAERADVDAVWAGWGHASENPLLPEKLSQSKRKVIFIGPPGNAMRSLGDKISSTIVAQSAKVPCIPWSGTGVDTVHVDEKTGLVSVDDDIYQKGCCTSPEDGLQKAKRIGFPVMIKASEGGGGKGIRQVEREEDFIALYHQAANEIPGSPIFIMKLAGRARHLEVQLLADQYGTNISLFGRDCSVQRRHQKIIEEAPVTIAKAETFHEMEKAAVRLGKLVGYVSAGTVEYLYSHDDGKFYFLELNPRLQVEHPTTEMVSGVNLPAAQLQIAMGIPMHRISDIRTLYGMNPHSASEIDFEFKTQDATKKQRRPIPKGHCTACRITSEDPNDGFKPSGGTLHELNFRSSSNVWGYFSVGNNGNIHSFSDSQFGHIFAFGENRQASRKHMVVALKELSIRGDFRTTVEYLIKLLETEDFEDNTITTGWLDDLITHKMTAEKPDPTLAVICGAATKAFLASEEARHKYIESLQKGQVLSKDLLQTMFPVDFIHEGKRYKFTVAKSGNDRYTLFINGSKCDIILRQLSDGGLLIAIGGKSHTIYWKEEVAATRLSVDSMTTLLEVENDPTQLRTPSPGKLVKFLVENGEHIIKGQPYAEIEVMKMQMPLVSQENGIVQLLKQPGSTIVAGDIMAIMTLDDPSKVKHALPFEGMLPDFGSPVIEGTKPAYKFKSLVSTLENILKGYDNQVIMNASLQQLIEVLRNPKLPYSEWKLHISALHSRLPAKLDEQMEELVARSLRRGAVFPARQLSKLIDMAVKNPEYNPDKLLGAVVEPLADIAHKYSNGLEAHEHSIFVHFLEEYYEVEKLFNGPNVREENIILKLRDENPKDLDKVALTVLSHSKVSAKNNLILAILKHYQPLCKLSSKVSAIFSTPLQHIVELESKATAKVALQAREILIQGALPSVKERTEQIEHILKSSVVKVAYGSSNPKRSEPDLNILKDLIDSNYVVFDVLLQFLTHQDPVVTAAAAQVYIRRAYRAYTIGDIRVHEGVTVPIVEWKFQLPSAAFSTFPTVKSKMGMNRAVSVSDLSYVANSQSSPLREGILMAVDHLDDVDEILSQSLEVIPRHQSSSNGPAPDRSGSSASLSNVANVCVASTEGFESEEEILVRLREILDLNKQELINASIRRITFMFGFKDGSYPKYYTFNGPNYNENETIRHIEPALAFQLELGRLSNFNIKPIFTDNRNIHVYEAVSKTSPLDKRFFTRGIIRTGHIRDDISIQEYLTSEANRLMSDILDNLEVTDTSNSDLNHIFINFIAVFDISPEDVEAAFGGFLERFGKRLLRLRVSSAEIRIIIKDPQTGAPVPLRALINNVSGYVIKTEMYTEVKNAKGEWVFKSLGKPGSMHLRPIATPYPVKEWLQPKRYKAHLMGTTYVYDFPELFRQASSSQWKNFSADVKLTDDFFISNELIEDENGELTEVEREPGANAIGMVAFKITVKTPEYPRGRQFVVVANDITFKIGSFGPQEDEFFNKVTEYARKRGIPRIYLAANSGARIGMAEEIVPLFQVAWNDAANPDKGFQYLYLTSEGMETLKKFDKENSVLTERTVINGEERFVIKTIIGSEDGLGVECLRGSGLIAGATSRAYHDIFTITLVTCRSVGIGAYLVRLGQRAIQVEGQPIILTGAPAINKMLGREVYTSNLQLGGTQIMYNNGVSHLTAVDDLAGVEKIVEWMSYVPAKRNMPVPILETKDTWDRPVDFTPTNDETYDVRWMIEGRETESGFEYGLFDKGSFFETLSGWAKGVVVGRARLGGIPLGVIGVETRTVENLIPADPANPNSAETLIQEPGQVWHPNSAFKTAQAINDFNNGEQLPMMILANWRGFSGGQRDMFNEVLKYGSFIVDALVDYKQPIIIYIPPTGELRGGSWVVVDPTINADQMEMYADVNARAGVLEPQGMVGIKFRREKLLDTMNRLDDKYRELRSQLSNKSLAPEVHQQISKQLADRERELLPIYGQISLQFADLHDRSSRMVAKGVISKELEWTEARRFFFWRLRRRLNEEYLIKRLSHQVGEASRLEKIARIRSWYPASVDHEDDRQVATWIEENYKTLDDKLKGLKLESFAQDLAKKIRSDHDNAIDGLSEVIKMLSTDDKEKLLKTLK
# Chain of Human ACC2 (O00763 whole entry): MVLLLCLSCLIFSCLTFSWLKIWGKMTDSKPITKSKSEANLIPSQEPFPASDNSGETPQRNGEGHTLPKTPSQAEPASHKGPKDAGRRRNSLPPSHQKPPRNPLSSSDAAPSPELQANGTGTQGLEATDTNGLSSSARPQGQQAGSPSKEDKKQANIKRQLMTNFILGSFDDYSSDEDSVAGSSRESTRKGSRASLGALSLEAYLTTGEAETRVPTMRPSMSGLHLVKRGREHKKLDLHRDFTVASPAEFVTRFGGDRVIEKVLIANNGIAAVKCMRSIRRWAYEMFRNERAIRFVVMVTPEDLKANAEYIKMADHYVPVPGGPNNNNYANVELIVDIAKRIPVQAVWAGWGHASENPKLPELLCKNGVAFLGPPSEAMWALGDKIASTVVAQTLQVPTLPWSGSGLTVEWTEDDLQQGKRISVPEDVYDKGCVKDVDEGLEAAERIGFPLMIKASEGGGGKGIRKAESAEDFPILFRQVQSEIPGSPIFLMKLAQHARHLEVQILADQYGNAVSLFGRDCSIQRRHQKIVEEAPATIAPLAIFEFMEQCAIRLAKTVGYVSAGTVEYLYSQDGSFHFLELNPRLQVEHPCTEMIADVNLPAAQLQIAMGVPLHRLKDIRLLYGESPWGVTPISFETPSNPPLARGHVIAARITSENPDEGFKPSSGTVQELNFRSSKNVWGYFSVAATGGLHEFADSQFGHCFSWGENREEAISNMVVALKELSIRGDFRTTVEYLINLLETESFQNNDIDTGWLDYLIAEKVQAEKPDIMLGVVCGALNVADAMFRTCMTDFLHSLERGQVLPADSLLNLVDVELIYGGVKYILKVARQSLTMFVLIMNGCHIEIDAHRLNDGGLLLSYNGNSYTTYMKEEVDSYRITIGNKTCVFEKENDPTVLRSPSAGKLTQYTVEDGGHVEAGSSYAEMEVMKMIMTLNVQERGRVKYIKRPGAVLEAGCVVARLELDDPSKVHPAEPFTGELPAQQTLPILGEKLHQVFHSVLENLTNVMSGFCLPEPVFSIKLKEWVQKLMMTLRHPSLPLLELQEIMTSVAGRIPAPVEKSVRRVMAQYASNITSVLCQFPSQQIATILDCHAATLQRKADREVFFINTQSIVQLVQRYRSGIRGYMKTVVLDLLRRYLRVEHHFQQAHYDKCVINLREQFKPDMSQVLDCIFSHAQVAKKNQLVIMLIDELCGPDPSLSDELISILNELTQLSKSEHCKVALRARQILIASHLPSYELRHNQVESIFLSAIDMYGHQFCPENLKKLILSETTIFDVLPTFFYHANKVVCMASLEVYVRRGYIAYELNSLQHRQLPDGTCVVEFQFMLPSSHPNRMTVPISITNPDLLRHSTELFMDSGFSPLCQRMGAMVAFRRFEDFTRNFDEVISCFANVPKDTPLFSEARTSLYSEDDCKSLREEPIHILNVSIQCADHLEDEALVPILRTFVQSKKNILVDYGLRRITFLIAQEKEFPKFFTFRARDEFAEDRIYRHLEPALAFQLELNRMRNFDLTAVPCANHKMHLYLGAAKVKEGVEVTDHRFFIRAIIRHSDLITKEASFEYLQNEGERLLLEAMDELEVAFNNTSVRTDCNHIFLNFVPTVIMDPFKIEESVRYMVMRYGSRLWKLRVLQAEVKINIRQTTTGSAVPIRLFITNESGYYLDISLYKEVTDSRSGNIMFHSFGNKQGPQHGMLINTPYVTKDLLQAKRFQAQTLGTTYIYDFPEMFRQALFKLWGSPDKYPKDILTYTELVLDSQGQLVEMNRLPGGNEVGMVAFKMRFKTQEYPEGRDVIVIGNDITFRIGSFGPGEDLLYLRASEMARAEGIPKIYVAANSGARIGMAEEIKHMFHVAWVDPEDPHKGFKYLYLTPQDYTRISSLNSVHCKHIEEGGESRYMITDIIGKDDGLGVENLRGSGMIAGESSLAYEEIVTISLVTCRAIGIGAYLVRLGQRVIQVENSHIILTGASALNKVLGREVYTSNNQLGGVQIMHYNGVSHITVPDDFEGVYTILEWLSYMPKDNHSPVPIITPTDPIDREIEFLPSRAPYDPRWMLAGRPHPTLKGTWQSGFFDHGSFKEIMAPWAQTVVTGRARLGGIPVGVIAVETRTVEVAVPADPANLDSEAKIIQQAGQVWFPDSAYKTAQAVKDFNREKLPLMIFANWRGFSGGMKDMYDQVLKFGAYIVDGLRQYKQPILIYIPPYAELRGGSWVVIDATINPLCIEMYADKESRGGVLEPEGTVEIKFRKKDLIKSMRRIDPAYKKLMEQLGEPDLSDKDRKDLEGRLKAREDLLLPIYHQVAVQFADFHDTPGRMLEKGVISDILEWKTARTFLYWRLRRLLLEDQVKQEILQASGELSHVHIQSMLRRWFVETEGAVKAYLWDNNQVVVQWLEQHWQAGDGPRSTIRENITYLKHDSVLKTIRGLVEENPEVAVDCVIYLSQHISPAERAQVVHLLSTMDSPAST
compound,measurement,setting,value
"COc1ccccc1[C@H](Cn1c(=O)n(C2CCN(C)C2=O)c(=O)c2c(C)c(-c3ncco3)sc21)OCCO (stereo partly drawn) [Compound I-54, 1-((R)-2-(2-hydroxyethoxy)-2-(2-methoxyphenyl)ethyl)-5-methyl-3-(1-methyl-2-oxopyrrolidin-3-yl)-6-(oxazol-2-yl)thieno[2,3-d]pyrimidine-2,4(1H,3H)-dione]",MIC,[1],2.1 to 4 µg/mL
same,MIC,C. albicans ATCC 90028,2.1 to 4 µg/mL
same,pIC50,Human ACC2,7.00 to 8.00
same,MIC,C. krusei ATCC 6258,2.1 to 4 µg/mL
same,pIC50,Fungal ACC2,8.00 to 8.70
"COc1ccc(F)cc1[C@H](Cn1c(=O)n(C2CCN(C)C2=O)c(=O)c2c(C)c(-c3ncco3)sc21)OCCO (stereo partly drawn) [Compound I-55, 1-((R)-2-(5-fluoro-2-methoxyphenyl)-2-(2-hydroxy-ethoxy)ethyl)-5-methyl-3-(-methyl-2-oxopyrrolidin-3-yl)-6-(oxazol-2-yl)thieno[2,3-d]pyrimidine-2,4(1H,3H)-dione]",MIC,[1],2.1 to 4 µg/mL
same,MIC,C. albicans ATCC 90028,2.1 to 4 µg/mL
same,pIC50,Human ACC2,7.00 to 8.00
same,MIC,C. krusei ATCC 6258,2.1 to 4 µg/mL
same,pIC50,Fungal ACC2,8.70 to 9.15
"COc1ccccc1[C@H](Cn1c(=O)n([C@@H]2CCCNC2=O)c(=O)c2c(C)c(-c3ncco3)sc21)OCCO [Compound I-61, 1-((R)-2-(2-hydroxyethoxy)-2-(2-methoxyphenyl)ethyl)-5-methyl-6-(oxazol-2-yl)-3-((R)-2-oxopiperidin-3-yl)thieno[2,3-d]pyrimidine-2,4(1H,3H)-dione]",MIC,[1],2.1 to 4 µg/mL
same,MIC,C. albicans ATCC 90028,2.1 to 4 µg/mL
same,pIC50,Human ACC2,7.00 to 8.00
same,MIC,C. krusei ATCC 6258,2.1 to 4 µg/mL
same,pIC50,Fungal ACC2,8.70 to 9.15
"COc1ccccc1[C@H](Cn1c(=O)n([C@H]2CCCN(C)C2=O)c(=O)c2c(C)c(-c3ncco3)sc21)OCCO [Compound I-66, 1-((R)-2-(2-hydroxyethoxy)-2-(2-methoxyphenyl)ethyl)-5-methyl-3-((S)-1-methyl-2-oxopiperidin-3-yl)-6-(oxazol-2-yl)thieno[2,3-d]pyrimidine-2,4(1H,3H)-dione]",MIC,[1],2.1 to 4 µg/mL
same,MIC,C. albicans ATCC 90028,2.1 to 4 µg/mL
same,pIC50,Human ACC2,7.00 to 8.00
same,MIC,C. krusei ATCC 6258,2.1 to 4 µg/mL
same,pIC50,Fungal ACC2,8.00 to 8.70
"COc1ccccc1[C@H](Cn1c(=O)n([C@@H]2CCCN(C)C2=O)c(=O)c2c(C)c(-c3ncco3)sc21)OCCO [Compound I-67, 1-((R)-2-(2-hydroxyethoxy)-2-(2-methoxyphenyl)ethyl)-5-methyl-3-((R)-1-methyl-2-oxopiperidin-3-yl)-6-(oxazol-2-yl)thieno[2,3-d]pyrimidine-2,4(1H,3H)-dione]",MIC,[1],2.1 to 4 µg/mL
same,MIC,C. albicans ATCC 90028,2.1 to 4 µg/mL
same,pIC50,Human ACC2,7.00 to 8.00
same,MIC,C. krusei ATCC 6258,2.1 to 4 µg/mL
same,pIC50,Fungal ACC2,8.00 to 8.70
"COc1ccc(F)cc1[C@H](Cn1c(=O)n([C@H]2CCNC2=O)c(=O)c2c(C)c(-c3ncco3)sc21)OCCO [Compound I-68, 1-((R)-2-(5-fluoro-2-methoxyphenyl)-2-(2-hydroxy-ethoxy)ethyl)-5-methyl-6-(oxazol-2-yl)-3-((S)-2-oxopyrrolidin-3-yl)thieno[2,3-d]pyrimidine-2,4(1H,3H)-dione]",MIC,[1],2.1 to 4 µg/mL
same,MIC,C. albicans ATCC 90028,2.1 to 4 µg/mL
same,pIC50,Human ACC2,7.00 to 8.00
same,MIC,C. krusei ATCC 6258,2.1 to 4 µg/mL
same,pIC50,Fungal ACC2,8.00 to 8.70
"COc1ccc(F)cc1[C@H](Cn1c(=O)n([C@@H]2CCNC2=O)c(=O)c2c(C)c(-c3ncco3)sc21)OCCO [Compound I-69, 1-((R)-2-(5-fluoro-2-methoxyphenyl)-2-(2-hydroxy-ethoxy)ethyl)-5-methyl-6-(oxazol-2-yl)-3-((R)-2-oxopyrrolidin-3-yl)thieno[2,3-d]pyrimidine-2,4(1H,3H)-dione]",MIC,[1],2.1 to 4 µg/mL
same,MIC,C. albicans ATCC 90028,2.1 to 4 µg/mL
same,pIC50,Human ACC2,7.00 to 8.00
same,MIC,C. krusei ATCC 6258,2.1 to 4 µg/mL
same,pIC50,Fungal ACC2,8.00 to 8.70
"COCCO[C@@H](Cn1c(=O)n([C@@H]2CCN(C(=O)C(C)C)C2)c(=O)c2c(C)c(-n3nccn3)sc21)c1cc(F)ccc1OC [Compound I-86, 1-((R)-2-(5-fluoro-2-methoxyphenyl)-2-(2-methoxy-ethoxy)ethyl)-3-((R)-1-isobutyrylpyrrolidine-3-yl)-5-methyl-6-(2H-1,2,3-triazol-2-yl)thieno[2,3-d]pyrimidine-2,4(1H,3H)-dione]",MIC,[1],2.1 to 4 µg/mL
same,MIC,C. albicans ATCC 90028,2.1 to 4 µg/mL
same,pIC50,Human ACC2,7.00 to 8.00
same,MIC,C. krusei ATCC 6258,2.1 to 4 µg/mL
same,pIC50,Fungal ACC2,8.70 to 9.15
"COc1ccc(F)cc1[C@H](Cn1c(=O)n([C@@H]2CCN(C(=O)C(C)C)C2)c(=O)c2c(C)c(-n3nccn3)sc21)OCCO [Compound I-87, 1-((R)-2-(5-fluoro-2-methoxyphenyl)-2-(2-hydroxy-ethoxy)ethyl)-3-((R)-1-isobutyrylpyrrolidine-3-yl)-5-methyl-6-(2H-1,2,3-triazol-2-yl)thieno[2,3-d]pyrimidine-2,4(1H,3H)-dione]",MIC,[1],2.1 to 4 µg/mL
same,MIC,C. albicans ATCC 90028,2.1 to 4 µg/mL
same,pIC50,Human ACC2,7.00 to 8.00
same,MIC,C. krusei ATCC 6258,2.1 to 4 µg/mL
same,pIC50,Fungal ACC2,8.70 to 9.15
"COCCO[C@@H](Cn1c(=O)n([C@H]2CNC(=O)C2)c(=O)c2c(C)c(-n3nccn3)sc21)c1cc(F)ccc1OC [Compound I-88, 1-((R)-2-(5-fluoro-2-methoxyphenyl)-2-(2-methoxy-ethoxy)ethyl)-5-methyl-3-((R)-5-oxopyrrolidin-3-yl)-6-(2H-1,2,3-triazol-2-yl)thieno[2,3-d]pyrimidine-2,4(1H,3H)-dione]",MIC,[1],2.1 to 4 µg/mL
same,MIC,C. albicans ATCC 90028,2.1 to 4 µg/mL
same,pIC50,Human ACC2,7.00 to 8.00
same,MIC,C. krusei ATCC 6258,2.1 to 4 µg/mL
same,pIC50,Fungal ACC2,8.70 to 9.15
"COc1ccc(F)cc1[C@H](Cn1c(=O)n([C@H]2CNC(=O)C2)c(=O)c2c(C)c(-n3nccn3)sc21)OCCO [Compound I-89, 1-((R)-2-(5-fluoro-2-methoxyphenyl)-2-(2-hydroxy-ethoxy)ethyl)-5-methyl-3-((R)-5-oxopyrrolidin-3-yl)-6-(2H-1,2,3-triazol-2-yl)thieno[2,3-d]pyrimidine-2,4(1H, 3H)-dione]",MIC,[1],2.1 to 4 µg/mL
same,MIC,C. albicans ATCC 90028,2.1 to 4 µg/mL
same,pIC50,Human ACC2,8.00 to 8.70
same,MIC,C. krusei ATCC 6258,2.1 to 4 µg/mL
same,pIC50,Fungal ACC2,8.70 to 9.15
"COCCO[C@@H](Cn1c(=O)n([C@@H]2CNC(=O)C2)c(=O)c2c(C)c(-n3nccn3)sc21)c1cc(F)ccc1OC [Compound I-90, 1-((R)-2-(5-fluoro-2-methoxyphenyl)-2-(2-methoxy-ethoxy)ethyl)-5-methyl-3-((S)-5-oxopyrrolidin-3-yl)-6-(2H-1,2,3-triazol-2-yl)thieno[2,3-d]pyrimidine-2,4(1H,3H)-dione]",MIC,[1],2.1 to 4 µg/mL
same,MIC,C. albicans ATCC 90028,2.1 to 4 µg/mL
same,pIC50,Human ACC2,8.00 to 8.70
same,MIC,C. krusei ATCC 6258,2.1 to 4 µg/mL
same,pIC50,Fungal ACC2,8.70 to 9.15
"COc1ccc(F)cc1[C@H](Cn1c(=O)n([C@@H]2CNC(=O)C2)c(=O)c2c(C)c(-n3nccn3)sc21)OCCO [Compound I-91, 1-((R)-2-(5-fluoro-2-methoxyphenyl)-2-(2-hydroxy-ethoxy)ethyl)-5-methyl-3-((S)-5-oxopyrrolidin-3-yl)-6-(2H-1,2,3-triazol-2-yl)thieno[2,3-d]pyrimidine-2,4(1H,3H)-dione]",MIC,[1],2.1 to 4 µg/mL
same,MIC,C. albicans ATCC 90028,2.1 to 4 µg/mL
same,pIC50,Human ACC2,8.00 to 8.70
same,MIC,C. krusei ATCC 6258,2.1 to 4 µg/mL
same,pIC50,Fungal ACC2,8.70 to 9.15
"COCCO[C@@H](Cn1c(=O)n([C@@H]2CC(=O)N(C)C2)c(=O)c2c(C)c(-n3nccn3)sc21)c1cc(F)ccc1OC [Compound I-92, 1-((R)-2-(5-fluoro-2-methoxyphenyl)-2-(2-methoxy-ethoxy)ethyl)-5-methyl-3-((R)-1-methyl-5-oxopyrrolidin-3-yl)-6-(2H-1,2,3-triazol-2-yl)thieno[2,3-d]pyrimidine-2,4(1H,3H)-dione]",MIC,[1],2.1 to 4 µg/mL
same,MIC,C. albicans ATCC 90028,2.1 to 4 µg/mL
same,pIC50,Human ACC2,7.00 to 8.00
same,MIC,C. krusei ATCC 6258,2.1 to 4 µg/mL
same,pIC50,Fungal ACC2,8.70 to 9.15
"COc1ccc(F)cc1[C@H](Cn1c(=O)n([C@@H]2CC(=O)N(C)C2)c(=O)c2c(C)c(-n3nccn3)sc21)OCCO [Compound I-93, 1-((R)-2-(5-fluoro-2-methoxyphenyl)-2-(2-hydroxy-ethoxy)ethyl)-5-methyl-3-((R)-1-methyl-5-oxopyrrolidin-3-yl)-6-(2H-1,2,3-triazol-2-yl)thieno[2,3-d]pyrimidine-2,4(1H, 3H)-dione]",MIC,[1],2.1 to 4 µg/mL
same,MIC,C. albicans ATCC 90028,2.1 to 4 µg/mL
same,pIC50,Human ACC2,8.00 to 8.70
same,MIC,C. krusei ATCC 6258,2.1 to 4 µg/mL
same,pIC50,Fungal ACC2,8.70 to 9.15
"COCCO[C@@H](Cn1c(=O)n([C@H]2CC(=O)N(C)C2)c(=O)c2c(C)c(-n3nccn3)sc21)c1cc(F)ccc1OC [Compound I-94, 1-((R)-2-(5-fluoro-2-methoxyphenyl)-2-(2-methoxy-ethoxy)ethyl)-5-methyl-3-((S)-1-methyl-5-oxopyrrolidin-3-yl)-6-(2H-1,2,3-triazol-2-yl)thieno[2,3-d]pyrimidine-2,4(1H, 3H)-dione]",MIC,[1],2.1 to 4 µg/mL
same,MIC,C. albicans ATCC 90028,2.1 to 4 µg/mL
same,pIC50,Human ACC2,8.00 to 8.70
same,MIC,C. krusei ATCC 6258,2.1 to 4 µg/mL
same,pIC50,Fungal ACC2,8.70 to 9.15
"COc1ccc(F)cc1[C@H](Cn1c(=O)n([C@H]2CC(=O)N(C)C2)c(=O)c2c(C)c(-n3nccn3)sc21)OCCO [Compound I-95, 1-((R)-2-(5-fluoro-2-methoxyphenyl)-2-(2-hydroxy-ethoxy)ethyl)-5-methyl-3-((S)-1-methyl-5-oxopyrrolidin-3-yl)-6-(2H-1,2,3-triazol-2-yl)thieno[2,3-d]pyrimidine-2,4(1H,3H)-dione]",MIC,[1],2.1 to 4 µg/mL
same,MIC,C. albicans ATCC 90028,2.1 to 4 µg/mL
same,pIC50,Human ACC2,8.00 to 8.70
same,MIC,C. krusei ATCC 6258,2.1 to 4 µg/mL
same,pIC50,Fungal ACC2,8.00 to 8.70
"COCCO[C@@H](Cn1c(=O)n([C@H]2CCN(C(=O)C(C)C)C2)c(=O)c2c(C)c(-n3nccn3)sc21)c1cc(F)ccc1OC [Compound I-96, 1-((R)-2-(5-fluoro-2-methoxyphenyl)-2-(2-methoxy-ethoxy)ethyl)-3-((S)-1-isobutyrylpyrrolidin-3-yl)-5-methyl-6-(2H-1,2,3-triazol-2-yl)thieno[2,3-d]pyrimidine-2,4(1H,3H)-dione]",MIC,[1],2.1 to 4 µg/mL
same,MIC,C. albicans ATCC 90028,2.1 to 4 µg/mL
same,pIC50,Human ACC2,7.00 to 8.00
same,MIC,C. krusei ATCC 6258,2.1 to 4 µg/mL
same,pIC50,Fungal ACC2,8.00 to 8.70

# — patent US20190330224A1, “ACC INHIBITORS AND USES THEREOF” (Gilead Apollo, LLC, priority 2015, published 2019)
